Data published in US20180344726A1, “ABUSE RESISTANT TRANSDERMAL DELIVERY DEVICES AND COMPOSITIONS COMPRISING AN OPIOID AGONIST AND A NON-TRANSDERMALLY DELIVERED N-OXIDE DERIVATIVE OF AN OPIOID ANTAGONIST FOR THE TREATMENT OF PAIN” (priority 2015, published 2018).
Several values for one entry are separate records, joined by “and”; a condition that tells them apart may be missing. Equal values may be shown once. Read-outs that look alike come from different tables or passages of the source.

Assays:
[1] = +37° C.; for Mean concentration of Naloxone N-oxide in human whole blood samples / Mean concentration of Naloxone N-oxide in human plasma samples: mean of n=3; for Concentrations of Naloxone N-oxide in human plasma samples / Concentrations of Naloxone N-oxide in human whole blood samples: single replicates
Text: Analytical procedures followed were based on those outlined in the “Guideline on Bioanalytical Method Validation”, EMA, CHMP, EWP, July 2011 and “Reflection paper for laboratories that perform the analysis or evaluation of clinical trial samples, 28 Feb. 2012, EMA/INS/GCP/532137/2010” with reference to the “Guidance for Industry, Bioanalytical Method Validation” recommendations issued by the U.S. Department of Health and Human Services, Food and Drug Administration, Center for Drug Evaluation and Research (CDER), Center for Veterinary Medicine (CVM), May 2001, BP.
Control blank human plasma and blood containing K2EDTA as an anti-coagulant, was obtained from Clinical Trials Laboratory Service or BAS volunteers and was stored at nominally −20° C. and +4° C., respectively, when not in use. The mass spectrometer used was an Applied Biosystems AP15000 with the following settings:
All instrument control, data collection, peak area integration and storage was performed using Analyst (version 1.5.2). Peak areas were then imported into Watson LIMS (version 7.2.0.02) for regression and quantification. The mass spectrometer response (peak area ratio of analyte to internal standard) of each calibration standard was calculated by Watson LIMS and plotted against the nominal (prepared) concentration. A weighted (1/x^2) least squares linear regression analysis was used to calculate an equation of the calibration line.
Any concentrations below this level are reported as below the limit of quantification (BLQ). Samples with initial concentrations above the upper limit of quantification ([…]) were re-injected with a reduced injection volume (alongside QC High with reduced injection volume) and sample concentrations interpolated against a calibration curve injected with normal injection volume.

[2] = Intrinsic in vitro skin permeation of saturated antagonist solutions (Franz cell); type: in vitro ADME; conditions: saturated donor solution pH 5.0, human skin
Method: The determination of in vitro skin permeation was performed with saturated solutions of the respective antagonist species. Therefore an excess of the antagonist was weighed in phosphate buffer of pH 5.0 and stirred overnight. pH was monitored and, if necessary, adjusted. The cells were incubated at 32° C. Solutions were filtrated through a syringe filter (1 μm PTFE) prior to application into the diffusion cells. Concentrations of the solutions were determined.
Diffusion cells (made of glass) with a vertical application and a volume of 5 ml were used. The human skin used for the analysis came from an aesthetic operation. Belly skin from female donors was supplied from plastic surgery. After arrival, skin was visually checked whether it was without any scars and stretch marks. A layer of 200-400 μm was cut with a dermatome. The permeation area of 0.82 cm^2 was punched out of the skin.
The diffusion cell consists of a donor chamber and a receptor compartment, the skin is fixed between both. The sampling and volume replacement were executed via an autosampler.

[3] = In vitro skin permeation from prototype transdermal patches (Franz cell); type: in vitro ADME, human; conditions: patches with naloxone N-oxide:opioid agonist 1:1, 3:1 or 5:1 by weight
Method: Naloxone N-oxide was incorporated into a prototype transdermal patch along with an opioid agonist. […] Batches of patches were prepared by weighing the appropriate amounts of the opioid agonist, Naloxone N-oxide and dry patch matrix of poly(meth)acrylate and dissolving in ethylacetate. The matrix solvent system was added and stirred for 30 minutes on a magnetic stirrer to yield a homogenous mixture. After mixing, the drug/polymer mixture was hand cast onto a release liner, Loparex Prime Liner FL 2000. Casting was carried out with a casting knife of variable width to achieve a target dry area weight matrix of 55 g/m^2. The cast was then dried at room temperature for 10 minutes, transferred to a convection oven and dried at 70° C. for 15 minutes and at 100° C. for 5 minutes. Finally the dried casts were hand-laminated with an occlusive backing, Scotchpak 9738, and patches were cut out of the laminate with 0.82 cm^2 cutting dies for skin permeation and 5 cm^2 for stability experiments.
The in vitro skin permeation of opioid agonist from each of the patches was tested using a Franz cell as described above.

[4] = spiked with Naloxone-N-oxide 50 ng/mL, 30 minutes
[5] = spiked with Naloxone-N-oxide 50 ng/mL, 45 minutes
[6] = spiked with Naloxone-N-oxide 50 ng/mL, 60 minutes
[7] = spiked with Naloxone-N-oxide 50 ng/mL, 120 minutes
[8] = spiked with Naloxone-N-oxide 250 ng/mL, 0 minutes
[9] = spiked with Naloxone-N-oxide 250 ng/mL, 10 minutes
[10] = spiked with Naloxone-N-oxide 250 ng/mL, 20 minutes
[11] = spiked with Naloxone-N-oxide 250 ng/mL, 30 minutes
[12] = spiked with Naloxone-N-oxide 250 ng/mL, 45 minutes
[13] = spiked with Naloxone-N-oxide 250 ng/mL, 60 minutes
[14] = spiked with Naloxone-N-oxide 250 ng/mL, 120 minutes

## C=CC[N+]1([O-])CC[C@]23c4c5ccc(O)c4O[C@H]2C(=O)CC[C@@]3(O)[C@H]1C5 (stereo partly drawn) [Naloxone N-oxide]
[1]; [4]
  Mean concentration of Naloxone N-oxide in human whole blood samples: 16.0 ng/mL
  Concentrations of Naloxone N-oxide in human plasma samples: 46.9 ng/mL and 44.1 ng/mL and 47.9 ng/mL
  Concentrations of Naloxone N-oxide in human whole blood samples: 15.9 ng/mL and 15.2 ng/mL and 16.9 ng/mL
[1]; [5]
  Mean concentration of Naloxone N-oxide in human plasma samples: 47.4 ng/mL
  Mean concentration of Naloxone N-oxide in human whole blood samples: 14.4 ng/mL
  Concentrations of Naloxone N-oxide in human plasma samples: 47.6 ng/mL and 49.1 ng/mL and 45.4 ng/mL
  Concentrations of Naloxone N-oxide in human whole blood samples: 14.1 ng/mL (2×) and 15.1 ng/mL
[1]; [6]
  Mean concentration of Naloxone N-oxide in human plasma samples: 48.0 ng/mL
  Mean concentration of Naloxone N-oxide in human whole blood samples: 10.4 ng/mL
  Concentrations of Naloxone N-oxide in human plasma samples: 50.0 ng/mL and 46.0 ng/mL and 48.1 ng/mL
  Concentrations of Naloxone N-oxide in human whole blood samples: 10.7 ng/mL and 10.6 ng/mL and 10.0 ng/mL
[1]; [7]
  Mean concentration of Naloxone N-oxide in human plasma samples: 46.1 ng/mL
  Mean concentration of Naloxone N-oxide in human whole blood samples: 4.24 ng/mL
  Concentrations of Naloxone N-oxide in human plasma samples: 47.6 ng/mL and 43.9 ng/mL and 46.8 ng/mL
  Concentrations of Naloxone N-oxide in human whole blood samples: 3.99 ng/mL and 4.51 ng/mL and 4.22 ng/mL
[1]; [8]
  Mean concentration of Naloxone N-oxide in human plasma samples: 233 ng/mL
  Mean concentration of Naloxone N-oxide in human whole blood samples: 255 ng/mL
  Concentrations of Naloxone N-oxide in human plasma samples: 236 ng/mL and 233 ng/mL and 229 ng/mL
  Concentrations of Naloxone N-oxide in human whole blood samples: 245 ng/mL and 254 ng/mL and 265 ng/mL
[1]; [9]
  Mean concentration of Naloxone N-oxide in human plasma samples: 225 ng/mL
  Mean concentration of Naloxone N-oxide in human whole blood samples: 141 ng/mL
  Concentrations of Naloxone N-oxide in human plasma samples: 218 ng/mL and 234 ng/mL and 223 ng/mL
  Concentrations of Naloxone N-oxide in human whole blood samples: 135 ng/mL and 143 ng/mL and 144 ng/mL
[1]; [10]
  Mean concentration of Naloxone N-oxide in human plasma samples: 232 ng/mL
  Mean concentration of Naloxone N-oxide in human whole blood samples: 111 ng/mL
  Concentrations of Naloxone N-oxide in human plasma samples: 228 ng/mL and 241 ng/mL and 226 ng/mL
  Concentrations of Naloxone N-oxide in human whole blood samples: 107 ng/mL and 111 ng/mL and 115 ng/mL
[1]; [11]
  Mean concentration of Naloxone N-oxide in human plasma samples: 229 ng/mL
  Mean concentration of Naloxone N-oxide in human whole blood samples: 97.6 ng/mL
  Concentrations of Naloxone N-oxide in human plasma samples: 231 ng/mL and 229 ng/mL and 226 ng/mL
  Concentrations of Naloxone N-oxide in human whole blood samples: 99.0 ng/mL and 96.8 ng/mL and 97.1 ng/mL
[1]; [12]
  Mean concentration of Naloxone N-oxide in human plasma samples: 228 ng/mL
  Mean concentration of Naloxone N-oxide in human whole blood samples: 81.4 ng/mL
  Concentrations of Naloxone N-oxide in human plasma samples: 225 ng/mL and 228 ng/mL and 230 ng/mL
  Concentrations of Naloxone N-oxide in human whole blood samples: 78.2 ng/mL and 80.8 ng/mL and 85.3 ng/mL
[1]; [13]
  Mean concentration of Naloxone N-oxide in human plasma samples: 231 ng/mL
  Mean concentration of Naloxone N-oxide in human whole blood samples: 69.0 ng/mL
  Concentrations of Naloxone N-oxide in human plasma samples: 242 ng/mL and 229 ng/mL and 221 ng/mL
  Concentrations of Naloxone N-oxide in human whole blood samples: 73.9 ng/mL and 65.5 ng/mL and 67.7 ng/mL
[1]; [14]
  Mean concentration of Naloxone N-oxide in human plasma samples: 225 ng/mL
  Mean concentration of Naloxone N-oxide in human whole blood samples: 49.3 ng/mL
  Concentrations of Naloxone N-oxide in human plasma samples: 239 ng/mL and 226 ng/mL and 211 ng/mL
  Concentrations of Naloxone N-oxide in human whole blood samples: 46.8 ng/mL and 52.8 ng/mL and 48.3 ng/mL
[2]
  Permeation through the skin (in words): Naloxone N-oxide did not permeate through the skin.
[3]
  N-oxide permeated through the skin from patch: no detectable levels
